ChEMBL document CHEMBL1138912, “Dipeptidyl nitriles as human dipeptidyl peptidase I inhibitors” (Bioorg Med Chem Lett, 2006)
Activity calls are given as the source filed them. The calls are words filed in the database; no cut-off is given here.

Legend:
Dipeptidyl peptidase 1 [1] = molecular target: T1, Dipeptidyl peptidase 1 (Homo sapiens, UniProt P53634); assay: Inhibition of human DPP1
[2] = Metabolic stability in rat liver microsomes after 15 min; format: ADME, Microsome; details: read-out: Stability
Cathepsin B = Cathepsin B (Homo sapiens, UniProt P07858); assay: Inhibition of Cathepsin B
Pro-cathepsin H = molecular target: T2, Pro-cathepsin H (Homo sapiens, UniProt P09668); assay: Inhibition of Cathepsin H
T2 sequence (P09668 whole entry): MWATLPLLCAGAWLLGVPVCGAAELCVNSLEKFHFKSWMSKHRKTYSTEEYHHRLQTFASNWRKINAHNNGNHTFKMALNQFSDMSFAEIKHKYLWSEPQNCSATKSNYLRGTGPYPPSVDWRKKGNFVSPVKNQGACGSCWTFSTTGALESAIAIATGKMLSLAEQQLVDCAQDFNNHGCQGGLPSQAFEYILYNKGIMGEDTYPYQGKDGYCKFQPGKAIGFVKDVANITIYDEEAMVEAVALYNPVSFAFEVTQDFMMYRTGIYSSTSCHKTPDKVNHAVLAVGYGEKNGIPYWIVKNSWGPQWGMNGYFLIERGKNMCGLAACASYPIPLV

Procathepsin L = Procathepsin L (Homo sapiens, UniProt P07711); assay: Inhibition of Cathepsin L
Chain of Procathepsin L (P07711 whole entry): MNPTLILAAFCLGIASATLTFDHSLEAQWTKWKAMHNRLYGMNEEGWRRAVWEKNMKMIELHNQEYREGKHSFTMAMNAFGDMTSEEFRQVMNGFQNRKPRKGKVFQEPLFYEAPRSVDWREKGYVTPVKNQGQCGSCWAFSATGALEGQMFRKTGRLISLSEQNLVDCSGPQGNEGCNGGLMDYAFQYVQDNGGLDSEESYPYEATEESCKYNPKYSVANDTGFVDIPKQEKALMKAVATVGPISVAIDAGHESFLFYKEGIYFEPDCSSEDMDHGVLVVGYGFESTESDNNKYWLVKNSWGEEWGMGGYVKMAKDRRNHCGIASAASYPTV

Cytochrome P450 2C9 = Cytochrome P450 2C9 (Homo sapiens, UniProt P11712); assay: Inhibition of CYP2C9; format: ADME
Chain of Cytochrome P450 2C9 (P11712 whole entry): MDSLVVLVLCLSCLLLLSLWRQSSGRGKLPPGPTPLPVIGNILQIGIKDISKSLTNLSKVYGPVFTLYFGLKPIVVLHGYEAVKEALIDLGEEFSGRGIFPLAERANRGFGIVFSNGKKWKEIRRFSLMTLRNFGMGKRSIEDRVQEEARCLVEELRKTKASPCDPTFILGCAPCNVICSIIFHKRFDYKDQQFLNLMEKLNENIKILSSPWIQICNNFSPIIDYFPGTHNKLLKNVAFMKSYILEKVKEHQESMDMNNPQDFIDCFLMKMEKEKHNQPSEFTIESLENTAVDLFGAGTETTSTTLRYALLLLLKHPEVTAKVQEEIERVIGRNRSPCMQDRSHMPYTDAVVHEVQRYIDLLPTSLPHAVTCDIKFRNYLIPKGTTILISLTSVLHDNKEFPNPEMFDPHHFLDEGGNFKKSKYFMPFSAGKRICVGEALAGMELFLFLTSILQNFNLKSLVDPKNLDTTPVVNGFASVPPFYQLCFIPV

Cytochrome P450 2C19 = Cytochrome P450 2C19 (Homo sapiens, UniProt P33261); assay: Inhibition of CYP2C19; format: ADME
Chain of Cytochrome P450 2C19 (P33261 whole entry): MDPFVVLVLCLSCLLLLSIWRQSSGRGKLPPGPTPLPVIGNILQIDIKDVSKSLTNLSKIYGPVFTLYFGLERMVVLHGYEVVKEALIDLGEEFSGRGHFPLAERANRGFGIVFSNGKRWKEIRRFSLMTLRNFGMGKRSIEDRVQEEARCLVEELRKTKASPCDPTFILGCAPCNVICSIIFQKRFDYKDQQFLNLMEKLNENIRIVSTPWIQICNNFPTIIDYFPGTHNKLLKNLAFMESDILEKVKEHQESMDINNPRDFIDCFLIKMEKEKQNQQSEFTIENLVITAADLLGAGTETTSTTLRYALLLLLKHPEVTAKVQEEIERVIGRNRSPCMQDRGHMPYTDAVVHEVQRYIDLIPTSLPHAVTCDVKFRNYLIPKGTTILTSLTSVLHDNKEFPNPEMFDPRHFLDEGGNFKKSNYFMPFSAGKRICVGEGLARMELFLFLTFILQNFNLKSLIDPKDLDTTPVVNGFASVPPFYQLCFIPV

Dipeptidyl peptidase 1 [3] = molecular target: T1, Dipeptidyl peptidase 1; assay: Inhibition of human DPP1 at 20 uM
Dipeptidyl peptidase 1 [4] = molecular target: T1, Dipeptidyl peptidase 1; assay: Residual activity at human DPP1 at 10 uM

T1 sequence (P53634 25-134 limits assumed): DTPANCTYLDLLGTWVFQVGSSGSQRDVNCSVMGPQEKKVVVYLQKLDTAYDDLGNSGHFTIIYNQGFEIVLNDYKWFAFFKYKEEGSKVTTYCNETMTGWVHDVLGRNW
T1 sequence (P53634 231-394 limits assumed): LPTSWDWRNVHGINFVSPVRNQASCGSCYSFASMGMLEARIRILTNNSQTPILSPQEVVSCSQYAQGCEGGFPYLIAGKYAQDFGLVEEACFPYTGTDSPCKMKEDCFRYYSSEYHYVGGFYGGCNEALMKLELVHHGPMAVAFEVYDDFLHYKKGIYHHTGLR
T1 sequence (P53634 395-463 limits assumed): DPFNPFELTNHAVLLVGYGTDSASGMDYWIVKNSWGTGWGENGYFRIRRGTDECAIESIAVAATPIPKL

Row | Structure (SMILES) | IC50 (Dipeptidyl peptidase 1 [1]) | remaining at 0.25 h [2] | also measured
1 | N#CC(Cc1ccccc1)NC(=O)[C@@H](N)Cc1ccccc1 (stereo in doubt; 8) | 418 nM | 45% | –
2 | N#CC(Cc1ccccc1)NC(=O)[C@@H](N)Cc1ccccc1 (stereo in doubt) | 294 nM | – | –
3 | CC[C@H](N)C(=O)N[C@H](C#N)Cc1ccccc1 | 172 nM | 80% | –
4 | N#C[C@H](Cc1ccccc1)NC(=O)CN | 4790 nM | – | –
5 | CC[C@H](N)C(=O)N[C@H](C#N)Cc1ccc(-c2ccccc2)cc1 | – | – | IC50 (Cathepsin B): > 10000 nM; IC50 (Pro-cathepsin H): > 10000 nM; IC50 (Procathepsin L): > 10000 nM; IC50 (Cytochrome P450 2C9): > 20000 nM; IC50 (Cytochrome P450 2C19): > 20000 nM
6 | N#C[C@H](Cc1ccccc1)N1CC[C@H](N)C1=O | – | – | inhibition (Dipeptidyl peptidase 1 [3]): inactive
7 | CC[C@H](N)C(=O)N[C@H](C#N)Cc1ccc(Cl)cc1 | 96 nM | 70% | –
8 | CC[C@H](N)C(=O)N[C@H](C#N)C/C=C/c1ccccc1 | 137 nM | – | –
9 | CC[C@H](N)C(=O)N(C)[C@H](C#N)Cc1ccccc1 | – | – | Activity (Dipeptidyl peptidase 1 [4]): 94%
10 | N#CC(Cc1ccccc1)NC(=O)[C@@H](N)Cc1ccccc1 (single isomer, unassigned; isomer B) | 6300 nM | – | –
11 | CC[C@H](N)C(=O)N[C@H](C#N)CCc1ccccc1 | 822 nM | 74% | –
12 | N#C[C@H](Cc1ccccc1)NC(=O)[C@@H]1CCCN1 | 9640 nM | 39% | –
